Data on 13 compounds can be found in US11149031B2, “Substituted N-(3-fluoropropyl)-pyrrolidine compounds, processes for their preparation and therapeutic uses thereof” (SANOFI, priority 2016, dated 2021).

Like-named read-outs stand apart in the source and are kept apart here. Bounds are passed on as bounds.

The target in one assay is ERα in MCF7 cells (Homo sapiens (Human), UniProt P03372). Briefly: Test C: estrogen receptor degradation activity, ERα in cell western assay in MCF7 cells. The format is cell-based. The settings on record: for DC50: 4 hours post compound addition, ERα in cell western, read-out: Degradation IC50; for % Degradation at 3 μM: 4 hours, relative to fulvestrant. A digest of the protocol:
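ERα level is read as integrated green fluorescence, with DNA taken from red Syto-64 signal, after MCF7 cells are exposed to compound for 4 hours. Cells grow in hormone-depleted medium (5% charcoal-dextran stripped FBS, no phenol red); fulvestrant at 0.1 μM is the positive control.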

For assay [1], the target named is His6-ERα298-554 Y537S mutant (ERα ligand-binding domain) (Homo sapiens (Human), UniProt P03372, Y537S). The assay can be described thus: Test A: biochemical antagonist activity, LanthaScreen TR-FRET ERα coactivator assay, Y537S mutant. As to conditions: read-out: Antagonism Y537S IC50. Summed up: (§1)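 His6-ERα LBD (aa 298–554), 0.5 nM, with Tb-anti-His6 antibody, 250 nM PGC1a peptide and 3 nM (or 10 nM) estradiol in pH 7.4 potassium phosphate/DTT buffer; incubated with compound overnight at room temperature. IC50 from 4-parameter logistic fit of TR-FRET 520:495 nm ratio.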
Chain of His6-ERα298-554 Y537S mutant (ERα ligand-binding domain) (P03372 298-554 Y537S): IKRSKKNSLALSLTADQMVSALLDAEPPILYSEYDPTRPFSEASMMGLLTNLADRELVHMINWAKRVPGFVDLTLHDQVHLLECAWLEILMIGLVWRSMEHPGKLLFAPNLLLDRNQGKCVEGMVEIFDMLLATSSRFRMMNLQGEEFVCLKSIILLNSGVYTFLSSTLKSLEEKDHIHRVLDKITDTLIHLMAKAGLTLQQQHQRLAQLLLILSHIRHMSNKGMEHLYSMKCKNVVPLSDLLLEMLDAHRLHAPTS

In assay [2] the test system is MCF7 cells (breast tumor cells) WT. Briefly: Test B: cell proliferation/viability assay (CellTiter-Glo) on MCF7 WT. The format is cell-based. As to conditions: Homo sapiens, MCF7, 168 h, 7 days of compound exposure. Summed up:
(§2)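 Seed cells in phenol red-free MEM plus 5% charcoal dextran-stripped FBS. Next day add compound, 9-point 1:5 series, 3-0.000001 μM final. After 7 days, add CellTiter-Glo, read luminescence, and normalise to untreated after subtracting cell-free background.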
For orientation: In ATP-based viability assays light output follows the ATP content of the culture.

The subject of assay [3] is MCF7 cells expressing mutant estrogen receptor Asp 538 Gly. The assay can be described thus: Test B: cell proliferation/viability assay (CellTiter-Glo) on MCF7 Asp 538 Gly mutant. Format: cell-based. The settings on record: Homo sapiens, MCF7, 168 h, MCF7 cells expressing ER Asp 538 Gly mutant, 7 days of compound exposure, read-out: proliferation MCF7 D538G IC50. A digest of the protocol: as §2

The subject of assay [4] is MCF7 cells expressing mutant estrogen receptor Tyr 537 Ser. The assay can be described thus: Test B: cell proliferation/viability assay (CellTiter-Glo) on MCF7 Tyr 537 Ser mutant. As to conditions: Homo sapiens, MCF7, 168 h, MCF7 cells expressing ER Tyr 537 Ser mutant, 7 days of compound exposure, read-out: proliferation MCF7 Y537S IC50. The format is cell-based. A digest of the protocol:
as §2

For assay [5], the target named is His6-ERα298-554 WT (ERα ligand-binding domain) (Homo sapiens (Human), UniProt P03372). Briefly: Test A: biochemical antagonist activity, LanthaScreen TR-FRET ERα coactivator assay, WT. As to conditions: read-out: Antagonism WT IC50. Summed up: as §1
Chain of His6-ERα298-554 WT (ERα ligand-binding domain) (P03372 298-554): as the sequence (P03372 298-554 Y537S) above, with S240Y counted along it
Background: In TR-FRET formats the signal depends on donor and acceptor labels being close together.

For assay [6], the target named is His6-ERα298-554 D538G mutant (ERα ligand-binding domain) (Homo sapiens (Human), UniProt P03372, D538G). Briefly: Test A: biochemical antagonist activity, LanthaScreen TR-FRET ERα coactivator assay, D538G mutant. As to conditions: read-out: Antagonism D538G IC50. A digest of the protocol: as §1
Chain of His6-ERα298-554 D538G mutant (ERα ligand-binding domain) (P03372 298-554 D538G): as the sequence (P03372 298-554 Y537S) above, with S240Y, D241G counted along it
Where [7] appears, read: asterisk (*): protocol using 10 nM estradiol.

Chain of ERα in MCF7 cells (P03372 whole entry): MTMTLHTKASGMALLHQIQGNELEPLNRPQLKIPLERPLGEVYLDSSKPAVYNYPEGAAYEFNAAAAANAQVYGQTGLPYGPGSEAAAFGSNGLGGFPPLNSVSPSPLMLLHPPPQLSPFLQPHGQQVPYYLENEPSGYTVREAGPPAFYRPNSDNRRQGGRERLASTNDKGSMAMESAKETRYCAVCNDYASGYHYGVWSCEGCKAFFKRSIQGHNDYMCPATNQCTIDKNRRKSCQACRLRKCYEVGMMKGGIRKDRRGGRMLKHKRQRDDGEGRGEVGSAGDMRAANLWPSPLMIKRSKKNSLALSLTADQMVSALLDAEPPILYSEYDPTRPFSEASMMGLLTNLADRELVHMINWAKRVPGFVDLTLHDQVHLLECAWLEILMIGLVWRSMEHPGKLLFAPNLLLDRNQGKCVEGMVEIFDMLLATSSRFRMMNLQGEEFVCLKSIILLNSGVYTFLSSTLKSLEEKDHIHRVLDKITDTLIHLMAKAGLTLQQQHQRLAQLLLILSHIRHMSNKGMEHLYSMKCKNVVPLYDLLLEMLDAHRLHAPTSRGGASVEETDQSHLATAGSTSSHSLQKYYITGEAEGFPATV

On to `CC1(C)Cc2cc(C3=C(c4ccc(O[C@H]5CCN(CCCF)C5)cc4)c4ccc(O)cc4SC3)ccc2N1` [Example 29, 3-(2,2-dimethylindolin-5-yl)-4-[4-[(3S)-1-(3-fluoropropyl)pyrrolidin-3-yl]oxyphenyl]-2H-thiochromen-7-ol], for which the DC50 on ERα in MCF7 cells amounted to 0.2 nM. For the same compound, the “% Degradation at 3 μM” value on ERα in MCF7 cells was found to be 92%. The IC50 worked out at 130 nM in assay [1] (setting [7]); 0.4 nM in assay [2]; 0.9 nM in assay [3]; 6 nM in assay [4]; 14 nM in assay [5] (setting [7]); 240 nM in assay [6] (setting [7]).

Take `Oc1ccc2c(c1)SCCC(c1ccc(SC(F)(F)F)cc1)=C2c1ccc(O[C@H]2CCN(CCCF)C2)cc1` [Example 222, 5-[4-[(3S)-1-(3-fluoropropyl)pyrrolidin-3-yl]oxyphenyl]-4-[4-(trifluoromethylsulfanyl)phenyl]-2,3-dihydro-1-benzothiepin-8-ol]: the DC50 on ERα in MCF7 cells amounted to 1 nM. Further, the “% Degradation at 3 μM” value at ERα in MCF7 cells was determined as 80%. Besides, the IC50 was determined as 238 nM in assay [1] (setting [7]); 4 nM in assay [2]; 0.4 nM in assay [3]; 1 nM in assay [4]; 18 nM in assay [5] (setting [7]); 371 nM in assay [6] (setting [7]).

`CC(C)(C)c1ccc(C2=C(c3ccc(O[C@H]4CCN(CCCF)C4)cc3)c3ccc(O)cc3SCC2)cc1` [Example 216, 4-(4-tert-butylphenyl)-5-[4-[(3S)-1-(3-fluoropropyl)pyrrolidin-3-yl]oxyphenyl]-2,3-dihydro-1-benzothiepin-8-ol]: the DC50 at ERα in MCF7 cells was 0.2 nM. The “% Degradation at 3 μM” value at ERα in MCF7 cells is 88%. The IC50 in assay [1] (setting [7]) is 543 nM; in assay [2], 0.6 nM; in assay [3], 1 nM; in assay [4] it was 13 nM; in assay [5] (setting [7]), 33 nM; in assay [6] (setting [7]), 662 nM.

In the case of `Oc1ccc2c(c1)SCC(c1ccc(F)nc1F)=C2c1ccc(O[C@H]2CCN(CCCF)C2)cc1` [Example 49, 3-(2,6-difluoro-3-pyridyl)-4-[4-[(3S)-1-(3-fluoropropyl)pyrrolidin-3-yl]oxyphenyl]-2H-thiochromen-7-ol], the DC50 on ERα in MCF7 cells is 0.2 nM. In addition, the “% Degradation at 3 μM” value at ERα in MCF7 cells was determined as 89%. The IC50 in assay [1] (setting [7]) was found to be 472 nM; in assay [2] it was 0.3 nM; in assay [3] it was 0.9 nM; in assay [4] it was 3 nM; in assay [5] (setting [7]) it was 37 nM; in assay [6] (setting [7]) it was 888 nM.

Regarding `CS(=O)(=O)c1ccc(C2=C(c3ccc(O[C@H]4CCN(CCCF)C4)cc3)c3ccc(O)cc3SCC2)cc1` [Example 194, 5-[4-[(3S)-1-(3-fluoropropyl)pyrrolidin-3-yl]oxyphenyl]-4-(4-methylsulfonylphenyl)-2,3-dihydro-1-benzothiepin-8-ol], at ERα in MCF7 cells, the DC50 came to 0.2 nM. Besides, the “% Degradation at 3 μM” value at ERα in MCF7 cells was 89%. Also, the IC50 amounted to 141 nM in assay [1] (setting [7]); 0.2 nM in assay [2]; 0.4 nM in assay [3]; 3 nM in assay [4]; 10 nM in assay [5] (setting [7]); 206 nM in assay [6] (setting [7]).

Regarding `Oc1ccc2c(c1)OCCC(c1ccc3c(c1)CCO3)=C2c1ccc(O[C@H]2CCN(CCCF)C2)cc1` [Example 151, 4-(2,3-dihydrobenzofuran-5-yl)-5-[4-[(3S)-1-(3-fluoropropyl)pyrrolidin-3-yl]oxyphenyl]-2,3-dihydro-1-benzoxepin-8-ol], the DC50 at ERα in MCF7 cells amounted to 0.4 nM. Also, at ERα in MCF7 cells, the “% Degradation at 3 μM” value was found to be 90%. The IC50 in assay [1] (setting [7]) came to 68 nM; in assay [2], 0.3 nM; in assay [3] it was 1 nM; in assay [4] it was 7 nM; in assay [5] (setting [7]), 6 nM; in assay [6] (setting [7]), 88 nM.

Turning to `Oc1ccc2c(c1)SCCC(c1ccc(OC(F)(F)F)cc1)=C2c1ccc(O[C@H]2CCN(CCCF)C2)cc1` [Example 214, 5-[4-[(3S)-1-(3-fluoropropyl)pyrrolidin-3-yl]oxyphenyl]-4-[4-(trifluoromethoxy)phenyl]-2,3-dihydro-1-benzothiepin-8-ol], at ERα in MCF7 cells, the DC50 is 1 nM. For the same compound, the “% Degradation at 3 μM” value on ERα in MCF7 cells was 82%. The IC50 in assay [1] (setting [7]) was 457 nM; in assay [2], 0.4 nM; in assay [3], 0.7 nM; in assay [4] it was 6 nM; in assay [5] (setting [7]) it was 38 nM; in assay [6] (setting [7]) it was 539 nM.

Regarding `Oc1ccc2c(c1F)CCCC(c1ccc(OC(F)F)c(F)c1)=C2c1ccc(O[C@H]2CCN(CCCF)C2)nc1` [Example 249, 6-[4-(difluoromethoxy)-3-fluoro-phenyl]-1-fluoro-5-[6-[(3S)-1-(3-fluoropropyl)pyrrolidin-3-yl]oxy-3-pyridyl]-8,9-dihydro-7H-benzo[7]annulen-2-ol], the DC50 on ERα in MCF7 cells is 0.3 nM. On ERα in MCF7 cells, the “% Degradation at 3 μM” value was found to be 87%. Further, the IC50 in assay [1] (setting [7]) turned out to be 14 nM; in assay [2], 0.3 nM; in assay [3], 0.6 nM; in assay [4], 4 nM; in assay [5] (setting [7]), 1 nM; in assay [6] (setting [7]) it was 24 nM.

Take `Oc1ccc2c(c1)SCC(c1ccc(OC(F)(F)F)cc1)=C2c1ccc(O[C@H]2CCN(CCCF)C2)cc1` [Example 54, 4-[4-[(3S)-1-(3-fluoropropyl)pyrrolidin-3-yl]oxyphenyl]-3-[4-(trifluoromethoxy)phenyl]-2H-thiochromen-7-ol]: the DC50 at ERα in MCF7 cells amounted to 1 nM. In addition, on ERα in MCF7 cells, the “% Degradation at 3 μM” value came to 74%. Also, the IC50 in assay [1] (setting [7]) is 2640 nM; in assay [2], 3 nM; in assay [3], 3 nM; in assay [4] it was 21 nM; in assay [5] (setting [7]), 246 nM; in assay [6] (setting [7]), 3030 nM.

`CCOc1nccc(C2=C(c3ccc(O[C@H]4CCN(CCCF)C4)cc3)c3ccc(O)cc3SC2)c1F` [Example 69, 3-(2-ethoxy-3-fluoro-4-pyridyl)-4-[4-[(3S)-1-(3-fluoropropyl)pyrrolidin-3-yl]oxyphenyl]-2H-thiochromen-7-ol]: at ERα in MCF7 cells, the DC50 worked out at 0.2 nM. Moreover, at ERα in MCF7 cells, the “% Degradation at 3 μM” value was 81%. The IC50 is above 4000 nM in assay [1] (setting [7]); 0.2 nM in assay [2]; 0.2 nM in assay [3]; 0.8 nM in assay [4]; 1570 nM in assay [5] (setting [7]); above 4000 nM in assay [6] (setting [7]).

With `CCOc1ccc(C2=C(c3ccc(O[C@H]4CCN(CCCF)C4)cc3)c3ccc(O)cc3SC2)c(Cl)c1` [Example 36, 3-(2-chloro-4-ethoxy-phenyl)-4-[4-[(3S)-1-(3-fluoropropyl)pyrrolidin-3-yl]oxyphenyl]-2H-thiochromen-7-ol], the DC50 at ERα in MCF7 cells turned out to be 0.2 nM. For the same compound, on ERα in MCF7 cells, the “% Degradation at 3 μM” value is on record as 83%. The IC50 was 154 nM in assay [1] (setting [7]); 0.5 nM in assay [2]; 0.5 nM in assay [3]; 3 nM in assay [4]; 11 nM in assay [5] (setting [7]); 257 nM in assay [6] (setting [7]).

As to `Oc1ccc2c(c1)OCCC(c1cccc3[nH]ccc13)=C2c1ccc(O[C@H]2CCN(CCCF)C2)cc1` [Example 110, 5-[4-[(3S)-1-(3-fluoropropyl)pyrrolidin-3-yl]oxyphenyl]-4-(1H-indol-4-yl)-2,3-dihydro-1-benzoxepin-8-ol], at ERα in MCF7 cells, the DC50 was 0.2 nM. Besides, the “% Degradation at 3 μM” value at ERα in MCF7 cells turned out to be 87%. Further, the IC50 in assay [1] (protocol with 3 nM estradiol) came to 26 nM; in assay [2], 1 nM; in assay [3] it was 6 nM; in assay [4], 45 nM; in assay [5] (protocol with 3 nM estradiol), 5 nM; in assay [6] (protocol with 3 nM estradiol), 39 nM.

For the compound `O=C(O)c1ccc2c(c1)CCCC(c1ccc(Cl)cc1Cl)=C2c1ccc(O[C@H]2CCN(CCCF)C2)nc1` [Example 247, 6-(2,4-dichlorophenyl)-5-[6-[(3S)-1-(3-fluoropropyl)pyrrolidin-3-yl]oxy-3-pyridyl]-8,9-dihydro-7H-benzo[7]annulene-2-carboxylic acid], on ERα in MCF7 cells, the DC50 is 0.2 nM. Moreover, the “% Degradation at 3 μM” value on ERα in MCF7 cells is 93%. Also, the IC50 in assay [1] (setting [7]) amounted to 72 nM; in assay [2] it was 0.2 nM; in assay [3], 0.4 nM; in assay [4], 6 nM; in assay [5] (setting [7]), 5 nM; in assay [6] (setting [7]), 136 nM.
